According to patent publication US20180133221A1, “ADMINISTRATION OF UBIQUITIN-ACTIVATING ENZYME INHIBITOR AND CHEMOTHERAPEUTIC AGENTS” (Millennium Pharmaceuticals, Inc., priority 2014, published 2018):
Like-named read-outs stand apart in the source and are kept apart here.

Legend:
[1] = system: mouse acute myeloid leukemia (AML model); conditions: mouse AML model (Xu et al., 2010); cited from earlier work
[2] = system: leukemia and myeloma cell lines; conditions: leukemia and myeloma cell lines (Xu et al., 2010); cited from earlier work
[3] = system: PHTX-24C colon xenograft; experiment: PHTX-24C xenograft model, Compound 1 and oxaliplatin; type: in vivo, CB-17 SCID mice
Description: (§1) Oxaliplatin (Jiang Su Geng Rui Pharmaceuticals, Inc.) is formulated in 0.9% saline and administered by IP injection once weekly (QW) at 7.5 or 12.5 mg/kg. The once weekly schedule is also described as every 7 days (Q7D).
(§2) Compound 1 [((1R,2R,3S,4R)-2,3-dihydroxy-4-(2-(3-(trifluoromethylthio)-phenyl)pyrazolo[1,5-a]pyrimidin-7-ylamino)cyclopentyl)methyl sulfamate] is formulated in 10-20% HPbCD in sterile water and administered intravenously (IV) or subcutaneously (SC) on a BIW (twice/week schedule; Monday and Thursday or Tuesday and Friday) for either 2-4 weeks.
(§3) Tumors were measured twice weekly using vernier calipers. Tumor volumes were calculated using the standard formula V=W^2×L/2,). When mean tumor volumes reached approximately 200 mm^3 for PHTX-24C, 220 mm^3 for PHTX-Lu132, 150 mm^3 for CTG-0256, 260 mm^3 for CTG-0486, 185 mm^3 for PHTX-17C, 260 mm^3 for CTG-0165, 150 mm^3 for PHTX-14B in the study of Compound 1 and paclitaxel, 180 mm^3 for PHTX-14B in the study of Compound 1 and docetaxel, 200 mm^3 for SKOV-3, 220 mm^3 for PHTX-02B in the study of Compound 1 and docetaxel, 250 mm^3 for PHTX-02B in the study of Compound 1 and paclitaxel, 195 mm^3 for CTG-0159, 180 mm^3 for CTG-0012 or 150 mm^3 for Calu-6, mice were randomized into groups of n=5-7/arm as described in the tables below, and injected with vehicle, Compound 1 or agents (docetaxel, paclitaxel, oxaliplatin, cisplatin or carboplatin), or the combination of Compound 1 plus one of the agents, at various doses and schedules as described in tables below. Tumor size and body weight were measured approximately twice a week for the duration of the study. Mice are euthanized when their tumor volume reached 10% of their body weight, or when the average tumor volume of a treatment or control group reached approximately 2000 mm^3. Tumor growth continued to be monitored after the dosing period in some studies. Average tumor volume is reported as a function of time for selected arms of selected studies in the Figures.
(§4) Measurements from day 0 to day 14, day 19, day 21, or day 28 are analyzed as specified in Tables below. All tumor volumes have a value of 1 added to them before log10 transformation. For each animal, the log tumor volume at day 0 is subtracted from the log tumor volume on the subsequent days. This difference vs. time is used to calculate an area under the curve (AUC) for each animal using the trapezoid rule. […] The synergy score for the combination of agents A and B is defined as
(§5) 100*(mean(AUCAB)−mean(AUCA)−mean(AUCB)+mean(AUCctl))/mean(AUCctl):
where AUCAB, AUCA, AUCB, and AUCctl are the AUC values for animals in the combination group, the A group, the B group, and the control group, respectively. […]

[4] = system: PHTX-17C colorectal carcinoma xenograft; type: in vivo; conditions: for Tumor Volume Day 21: in mm³ (unit assumed)
Excerpt: The PHTX-17C colorectal carcinoma xenograft model was established from a patient-derived tumor collected during surgery from a person with moderately differentiated adenocarcinoma.PHTX-17C tumor fragments (approximately 2×2×3 mm^3) were implanted into the subcutaneous space in the right dorsal flank of female nude mice (age 5-7 weeks, Balb/c Nude Mice, Shanghai SINO-British SIPPR/BK Lab Animal Ltd, Shanghai, China) using a 13-gauge trocar. When the mean tumor volume reached approximately 185 mm^3, the animals were randomized into 12 treatment groups (n=5/group).
as §1, §2, §3, §4, §5
where AUCAB, AUCA, AUCB, and AUCctl are the AUC values for animals in the combination group, the A group, the B group, and the control group, respectively. The standard error of the synergy score is computed based on the variation in the AUC values among the animals. […] If the P-value is above 0.05, then the combination is considered to be additive. If the P-value is below 0.05, and the synergy score is less than zero, then the combination is considered to be synergistic.

Compound	anti-tumor activity [1]	cell death [2]	Tumor Volume Day 21 ([3]; 7.5 mg/kg oxaliplatin Q7Dx2 IP, in mm³ (unit assumed))	anti-tumor activity compared to vehicle control ([3]; single agent oxaliplatin 7.5 mg/kg IP Q7D)	Tumor Volume Day 21 ([4]; 7.5 mg/kg oxaliplatin Q7Dx3 IP)	Tumor Volume Day 21 ([4]; 12.5 mg/kg oxaliplatin Q7Dx3 IP)	anti-tumor activity compared to vehicle control ([4]; single agent oxaliplatin IP at 7.5 or 12.5 mg/kg Q7D)
O=C1NN(c2ccc(F)c(Cl)c2)C(=O)/C1=C\c1ccc([N+](=O)[O-])o1 [PYZD-4409]	demonstrated anti-tumor activity	induced cell death	–	–	–	–	–
O=C1[O][Pt]2([NH][C@@H]3CCCC[C@H]3[NH]2)[O]C1=O [oxaliplatin, reference compound]	–	–	720.6	modest anti-tumor activity	2017.5	1758.9	modest anti-tumor activity
